Assay results taken from US20050049294A1, “Methods of using [3.2.0] heterocyclic compounds and analogs thereof” (priority 2003, published 2005).
Values joined by “and” are separate entries in the source; they are usually repeats but may differ in a detail not shown here. Equal entries are not always repeated. Where two headings read alike, the source gives them in different places.

Experiments:
CYP2D6 = CYP2D6 (Homo sapiens, UniProt P10635); assay: Preliminary P450 inhibition screen, CYP2D6
Excerpt: (§1) These studies consisted of solubility assessment, LogD^7.4 determination and a preliminary screen to detect cytochrome P450 enzyme inhibition.

DU 145 cells = assay: Cell growth inhibition (resazurin, 48 hours), DU 145; format: cell-based, human; conditions: for EC50: read-out: EC50 (nM), mean ± SD
Solubility assessment = conditions: PBS, pH 7.4, aqueous buffer
Excerpt: as §1

CYP1A2 = CYP1A2 (Homo sapiens, UniProt P05177); assay: Preliminary P450 inhibition screen, CYP1A2
Excerpt: as §1

CCD-27sk cells = assay: Cytotoxic activity against normal human fibroblasts; format: cell-based; conditions: 48h, panel of b226
B16-F10 cells = assay: Cell growth inhibition (resazurin, 48 hours), B16-F10; format: cell-based, mouse
[1] = system: PARP and Pro-Caspase 3 cleavage in PC-3 cells; assay: Cleavage of PARP and Pro-Caspase 3 (western blot), PC-3; format: cell-based, human; conditions: 100 nM, 0, 8 or 24 hours
Method: (§2) Total protein lysates were made and 20 μg of the lysates were then resolved under reducing/denaturing conditions and blotted onto nitrocellulose. The blots were then probed with anti-PARP or anti-caspase 3 antibodies followed by stripping and reprobing with an anti-actin antibody.

MES-SA cells = assay: Cell growth inhibition (resazurin, 48 hours), MES-SA
U266 cells = assay: Cell growth inhibition (resazurin, 48 hours), U266
CYP2C9 = CYP2C9 (Homo sapiens, UniProt P11712); assay: Preliminary P450 inhibition screen, CYP2C9
Excerpt: as §1

[2] = system: PARP and Pro-Caspase 3 cleavage in RPMI 8226 cells; assay: Cleavage of PARP and Pro-Caspase 3 (western blot), RPMI 8226; format: cell-based, human; conditions: 100 nM, 0, 8 or 24 hours
Method: as §2
25 μg of the lysates were then resolved under reducing/denaturing conditions and blotted onto nitrocellulose. The blots were then probed with anti-PARP or anti-caspase 3 antibodies followed by stripping and reprobing with an anti-actin antibody.

MES-SA/Dx5 cells = assay: cells; conditions: for Fold change: ratio of EC50 values (MES-SA/Dx5:MES-SA)
Jurkat cells = assay: Cytotoxicity against Jurkat cells; format: cell-based, human
LPS-induced plasma TNF = assay: Inhibition of in vivo LPS-induced TNF; conditions: 0.125 or […] i.v., 30 minutes post-LPS (2 mg/kg i.p.), mice
Method: Male Swiss Webster mice (12/group weighing 20-25 g) were injected with LPS (2 mg/kg) by the i.p. route. […] Ninety minutes after LPS injection, the mice were anesthetized with Isoflurane and bled by cardiac puncture to obtain plasma. Remaining blood pellet was then resuspended in 500 μL of PBS to wash away residual serum proteins and centrifuged again. Supernatant was removed and blood pellet frozen for analysis of proteasome inhibition in packed whole blood lysate.
Animals were dosed i.v. with 4 ml/kg. A vehicle control solution was also prepared by making the same 1:160 dilution with 100% DMSO into 10% solutol solution giving a final concentration of 9.375% solutol in water and 0.625% DMSO. Measurements of plasma TNF were performed using the Biosource mTNF Cytoset kit (Biosource Intl., Camarillo, Calif.; catalog #CMC3014) according to manufacturer's instructions. Samples were diluted 1:60 for the assay.

[3] = Maximum Tolerated Dose (MTD) determination; format: in vivo, BALB/c mice
Excerpt: In vivo studies were designed to determine the MTD of Salinosporamide A when administered intravenously to female BALB/c mice.
Animals were observed daily for clinical signs and were weighed individually twice weekly until the end of the experiment (maximum of 14 days after the last day of dosing).

PC-3 cells = assay: Cell growth inhibition (resazurin, 48 hours), PC-3; format: cell-based, human
[4] = molecular target: T1, trypsin-like activity of purified rabbit 20S proteasomes (Oryctolagus cuniculus, UniProt G1SWK8); assay: biochemical
T1 sequence (G1SWK8 1-271): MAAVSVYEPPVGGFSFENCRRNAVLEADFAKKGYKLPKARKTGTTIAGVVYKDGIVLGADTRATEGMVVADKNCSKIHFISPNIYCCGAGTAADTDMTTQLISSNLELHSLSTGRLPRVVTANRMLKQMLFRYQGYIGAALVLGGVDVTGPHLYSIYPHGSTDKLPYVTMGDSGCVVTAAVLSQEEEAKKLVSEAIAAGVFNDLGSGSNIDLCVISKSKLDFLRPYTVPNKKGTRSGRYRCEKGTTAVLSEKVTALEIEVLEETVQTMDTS

[5] = molecular target: PGPH (caspase-like) activity of rabbit muscle 20S proteasomes (Oryctolagus cuniculus, UniProt A0A5F9DQW2); assay: Inhibition of caspase-like (PGPH) activity of 20S proteasome (Z-LLE-AMC); format: biochemical; conditions: Table 3; mean EC50; purified rabbit 20S proteasomes
Method: A commercially available fluorogenic substrate specific for the PGPH activity was used instead of the chymotrypsin substrate supplied in the proteasome assay kit described above.
The substrate Z-LLE-AMC was prepared as a 20 mM stock solution in DMSO, stored at −20° C. The source of the proteasomes was the commercially available kit from Calbiochem (Cat. #539158). As with the chymotrypsin substrate, the proteasome can cleave Z-LLE-AMC into Z-LLE and free AMC. The activity can then be determined by measuring the fluorescence of the released AMC (λex=390 nm and λem=460 nm). The proteasomes were activated with SDS and held on ice as per manufacturer's recommendation. […] The series was diluted 20-fold with assay buffer and preincubated with the proteasomes as described for the chymotrypsin-like activity. After addition of substrate, the samples were incubated at 37° C., and release of the fluorescent AMC was monitored in a fluorimeter. All data were collected and plotted as the mean of triplicate points. […] As before, the model chosen was a sigmoidal dose-response, with a variable slope.

[6] = Mus musculus, B16-F10, Table 13, B16-F10
[7] = Homo sapiens, MES-SA, read-out: EC50 (nM) MES-SA, Table 16
[8] = Homo sapiens, U-266, Table 13, U266
[9] = Homo sapiens, U-266, read-out: U266 EC50 (nM), Table 15, mean EC50
[10] = Homo sapiens, MES-SA/Dx5, read-out: EC50 (nM) MES-SA/Dx5, Table 16
[11] = read-out: EC50 (nM) MES-SA/Dx5, Table 16
[12] = read-out: EC50 (nM) MES-SA, Table 16

Chain of PGPH (caspase-like) activity of rabbit muscle 20S proteasomes (A0A5F9DQW2 1-212): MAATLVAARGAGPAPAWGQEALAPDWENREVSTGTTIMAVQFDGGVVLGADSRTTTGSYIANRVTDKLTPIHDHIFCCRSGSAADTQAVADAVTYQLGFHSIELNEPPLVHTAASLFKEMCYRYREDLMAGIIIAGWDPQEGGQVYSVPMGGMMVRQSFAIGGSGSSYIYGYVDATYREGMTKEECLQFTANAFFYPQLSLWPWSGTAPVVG
Chain of CYP2C9 (P11712 whole entry): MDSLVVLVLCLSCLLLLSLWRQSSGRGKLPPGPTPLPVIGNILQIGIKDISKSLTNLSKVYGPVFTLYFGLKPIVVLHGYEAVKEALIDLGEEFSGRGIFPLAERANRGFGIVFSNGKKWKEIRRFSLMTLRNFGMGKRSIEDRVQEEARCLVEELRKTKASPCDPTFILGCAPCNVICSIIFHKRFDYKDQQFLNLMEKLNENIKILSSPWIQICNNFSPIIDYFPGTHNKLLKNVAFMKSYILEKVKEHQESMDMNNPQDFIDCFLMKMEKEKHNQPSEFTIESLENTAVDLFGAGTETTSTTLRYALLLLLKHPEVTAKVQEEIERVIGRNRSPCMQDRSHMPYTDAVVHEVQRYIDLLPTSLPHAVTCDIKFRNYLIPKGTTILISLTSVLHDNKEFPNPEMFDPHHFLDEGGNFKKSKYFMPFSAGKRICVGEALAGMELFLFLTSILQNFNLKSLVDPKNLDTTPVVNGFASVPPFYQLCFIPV
Chain of CYP2D6 (P10635 whole entry): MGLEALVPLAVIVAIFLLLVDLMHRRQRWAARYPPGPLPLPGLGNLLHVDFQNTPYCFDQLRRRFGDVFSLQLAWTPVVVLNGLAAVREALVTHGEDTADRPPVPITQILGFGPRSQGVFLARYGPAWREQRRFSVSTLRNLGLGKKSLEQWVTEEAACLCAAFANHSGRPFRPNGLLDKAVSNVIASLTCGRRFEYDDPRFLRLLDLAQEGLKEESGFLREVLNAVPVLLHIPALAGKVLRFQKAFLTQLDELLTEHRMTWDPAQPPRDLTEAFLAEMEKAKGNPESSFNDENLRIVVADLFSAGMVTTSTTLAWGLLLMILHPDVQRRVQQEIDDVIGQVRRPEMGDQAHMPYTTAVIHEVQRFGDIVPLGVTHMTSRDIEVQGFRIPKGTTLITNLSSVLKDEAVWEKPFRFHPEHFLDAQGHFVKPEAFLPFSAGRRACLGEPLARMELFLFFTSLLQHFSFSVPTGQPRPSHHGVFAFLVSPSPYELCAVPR
Chain of CYP1A2 (P05177 whole entry): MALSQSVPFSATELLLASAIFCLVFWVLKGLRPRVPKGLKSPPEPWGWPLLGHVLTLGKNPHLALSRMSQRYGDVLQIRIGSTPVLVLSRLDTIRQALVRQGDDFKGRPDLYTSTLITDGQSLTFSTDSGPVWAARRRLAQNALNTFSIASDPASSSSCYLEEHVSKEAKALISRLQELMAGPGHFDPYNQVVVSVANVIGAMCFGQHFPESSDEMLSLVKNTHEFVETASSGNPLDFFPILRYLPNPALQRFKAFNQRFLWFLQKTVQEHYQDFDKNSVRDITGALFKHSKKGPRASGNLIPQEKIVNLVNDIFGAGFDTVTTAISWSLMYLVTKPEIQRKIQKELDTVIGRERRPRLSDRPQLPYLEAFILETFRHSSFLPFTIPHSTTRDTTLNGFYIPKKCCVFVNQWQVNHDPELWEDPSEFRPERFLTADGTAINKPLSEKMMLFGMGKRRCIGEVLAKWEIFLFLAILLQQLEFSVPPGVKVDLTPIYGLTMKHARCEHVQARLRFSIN

C[C@@]12OC(=O)[C@]1([C@@H](O)[C@@H]1C=CCCC1)NC(=O)[C@@H]2CCCl [Formula II-16, Salinosporamide A]
inhibition at 10 µM (CYP2D6): 19%
EC50 (DU 145 cells; Homo sapiens, Table 6, DU 145 (n = 3)): 37 ± 10 nM
EC50 (DU 145 cells; Table 2, DU 145, human prostate carcinoma, 48 hours): 37 ± 10 nM
% cytotoxicity, mean ± SD (DU 145 cells; Table 6, DU 145 (n = 3)): 75 ± 4%
solubility (Solubility assessment): 9.6 µM and 3 µg/mL
inhibition at 10 µM (CYP1A2): 3%
EC50 (CCD-27sk cells): 196 nM
EC50 (B16-F10 cells; Mus musculus, B16-F10, 48 h): 33 nM
EC50 (B16-F10 cells; Mus musculus, B16-F10, 48 h, read-out: EC50 (nM), mean ± SD): 47 ± 20 nM
cleavage of PARP [1]: noticeable at 24 hours
cleavage of Pro-Caspase 3 [1]: not detected
EC50 (MES-SA cells; Homo sapiens, MES-SA, read-out: EC50 (nM), mean): 20 ± 5 nM
% cytotoxicity, mean ± SD (MES-SA cells; Table 7, MES-SA): 94 ± 1%
EC50 (U266 cells; Homo sapiens, U-266, 48 h, read-out: EC50 (nM), mean ± SD): 4.7 ± 0.7 nM
EC50 (U266 cells; Homo sapiens, U-266, read-out: U266 EC50 (nM)): 4.1 nM
inhibition at 10 µM (CYP2C9): 6%
induction of PARP cleavage [2]: noticeable at 8 hours and complete by 24 hours
EC50 (MES-SA/Dx5 cells; Homo sapiens, MES-SA/Dx5, read-out: EC50 (nM), mean ± SD): 23 ± 1 nM
% cytotoxicity, mean ± SD (MES-SA/Dx5 cells; Table 7, MES-SA/Dx5): 92 ± 2%
EC50 (Jurkat cells; Homo sapiens, Jurkat): 10 nM
% max cell kill (Jurkat cells; Table 5, Jurkat Cells): 97%
reduction of LPS-induced plasma TNF levels (LPS-induced plasma TNF): approximately 65%
behavioral changes during the course of the experiment ([3]; 0.01 to 0.5 mg/kg i.v.): No behavioral changes were noted
dose well tolerated when administered daily for five consecutive days ([3]; i.v., qdx5, female BALB/c mice): up to 0.1 mg/kg
single intravenous dose tolerated ([3]; i.v., single dose (qdx1), female BALB/c mice): up to 0.25 mg/kg
EC50 (PC-3 cells; Homo sapiens, PC-3, 48 h, PC3, 48h, panel of b226): 78 nM
EC50 (PC-3 cells; Homo sapiens, PC-3, 48 h, read-out: EC50 (nM), mean ± SD, Table 2, PC-3, human prostate adenocarcinoma, 48 hours): 64 ± 26 nM
EC50 (PC-3 cells; Homo sapiens, PC-3, Table 6, PC-3 (n = 2)): 31 nM
% cytotoxicity (PC-3 cells; Table 6, PC-3 (n = 2)): 88% and 89%
EC50 (PC-3 cells; Table 6, PC-3 (n = 2)): 25 nM

C[C@@]12OC(=O)[C@]1([C@@H](O)C1CCCCC1)NC(=O)[C@@H]2CCBr [Formula II-4]
EC50 [4]: 109 nM
EC50 (B16-F10 cells; [6]): 163 nM
EC50 (B16-F10 cells; Table 13, B16-F10): 175 nM
EC50 (MES-SA cells; [7]): 163 nM
EC50 (U266 cells; [8]): 39 nM
EC50 (U266 cells; [9]): 36 nM
EC50 (U266 cells; Table 13, U266): 34 nM
EC50 (MES-SA/Dx5 cells; [10]): 178 nM
Fold change (MES-SA/Dx5 cells; Table 16): 0.9 fold
EC50 (MES-SA/Dx5 cells; [11]): 93 nM
EC50 (PC-3 cells; Homo sapiens, PC-3): 204 ± 49 nM

C[C@@]12OC(=O)[C@]1([C@@H](O)C1CCCCC1)NC(=O)[C@@H]2CCCl [Formula II-2]
EC50 [5]: 1500 nM
EC50 [4]: 230 nM
EC50 (B16-F10 cells; [6]): 194 nM
EC50 (MES-SA cells; [7]): 193 nM
EC50 (MES-SA cells; [12]): 155 nM
EC50 (U266 cells; [8]): 32 nM
EC50 (U266 cells; [9]): 36 nM
EC50 (MES-SA/Dx5 cells; [10]): 220 nM
Fold change (MES-SA/Dx5 cells; Table 16): 1.0 fold
EC50 (MES-SA/Dx5 cells; [11]): 138 nM
EC50 (PC-3 cells; Homo sapiens, Table 13, PC-3, read-out: EC50): 284 ± 110 nM

C[C@@]12OC(=O)[C@]1([C@@H](O)[C@@H]1C=CCCC1)NC(=O)[C@@H]2CCBr [Formula II-18]
EC50 [5]: 250 nM
EC50 [4]: 14 nM
EC50 (B16-F10 cells; [6]): 19 nM
EC50 (B16-F10 cells; Table 13, B16-F10): 36 nM
EC50 (MES-SA cells; [7]): 22 nM
EC50 (MES-SA cells; [12]): 17 nM
EC50 (U266 cells; [8]): 4.2 nM
EC50 (U266 cells; [9]): 4.2 nM
Fold change (MES-SA/Dx5 cells; Table 16): 1.2 fold
EC50 (PC-3 cells; Homo sapiens, PC-3): 35 ± 5.6 nM
